Patent US7772241B2, “Variolin derivatives and their use as antitumor agents” (Pharma Mar S.A., priority 2001, dated 2010)
Like-named read-outs stand apart in the source and are kept apart here.

Key:
LoVo-Dox = experiment: Inhibition of cells growth by colorimetric (SRB) assay, LoVo-Dox
Summary of the method: (§1)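 Human tumour cells in RPMI 1640 with 10% FBS were seeded at 5×10^3 cells/well, allowed to attach for 18 h, then exposed to samples at 10 to 10^−8 μg/ml for 48 h. Growth was measured by SRB staining after TCA fixation, with absorbance read at 490 nm in triplicate wells.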

SK-MEL-28 = experiment: Inhibition of cells growth by colorimetric (SRB) assay, SK-MEL-28; conditions: SRB assay, 48 hours exposure; for GI50: read-out: GI50 MEL-28; for CC50: read-out: LC50 MEL-28
Summary of the method: as §1

HT-29 = experiment: Inhibition of cells growth by colorimetric (SRB) assay, HT-29
Summary of the method: as §1

A-549 = experiment: Inhibition of cells growth by colorimetric (SRB) assay, A-549
Summary of the method: as §1

K-562 = experiment: Inhibition of cells growth by colorimetric (SRB) assay, K-562
Summary of the method: as §1

SK-OV-3 = experiment: Inhibition of cells growth by colorimetric (SRB) assay, SK-OV-3
Summary of the method: as §1

LoVo = experiment: Inhibition of cells growth by colorimetric (SRB) assay, LoVo; conditions: for CC50: read-out: LC50 LOVO
Summary of the method: as §1

SK-BR-3 = experiment: Inhibition of cells growth by colorimetric (SRB) assay, SK-BR-3
Excerpt: The finality of these assays is to interrupt the growth of a “in vitro” tumor cell culture by means a continued exhibition of the cells to the sample to be testing.
This form of the assay employs 96 well cell culture microplates of 9 mm diameter (Faircloth, 1988; Mosmann, 1983). Most of the cell lines are obtained from American Type Culture Collection (ATCC) derived from different human cancer types.
Cells are maintained in RPMI 1640 10% FBS, supplemented with 0.1 g/l penicillin and 0.1 g/l streptomycin sulphate and then incubated at 37° C., 5% CO2 and 98% humidity. For the experiments, cells were harvested from subconfluent cultures using trypsin and resuspended in fresh medium before plating.
Cells are seeded in 96 well microtiter plates, at 5×10^3 cells per well in aliquots of 195 μl medium, and they are allowed to attach to the plate surface by growing in drug free medium for 18 hours. Afterward, samples are added in aliquots of 5 μl in a ranging from 10 to 10^−8 μg/ml, dissolved in DMSO/EtOH/PBS (0.5:0.5:99). After 48 hours exposure, the antitumor effect are measured by the SRB methodology: cells are fixed by adding 50 μl of cold 50% (wt/vol) trichloroacetic acid (TCA) and incubating for 60 minutes at 4° C. Plates are washed with deionized water and dried. One hundred μl of SRB solution (0.4% wt/vol in 1% acetic acid) is added to each microtiter well and incubated for 10 minutes at room temperature. Unbound SRB is removed by washing with 1% acetic acid. Plates are air dried and bound stain is solubilized with Tris buffer. Optical densities are read on a automated spectrophotometric plate reader at a single wavelength of 490 nm.
The values for mean +/−SD of data from triplicate wells are calculated. Some parameters for cellular responses can be calculated: GI=growth inhibition, TGI=total growth inhibition (cytostatic effect) and LC=cell killing (cytotoxic effect).

IGROV-1 = experiment: Inhibition of cells growth by colorimetric (SRB) assay, IGROV-1; conditions: for CC50: read-out: LC50 IGROV
Summary of the method: as §1

DU-145 = experiment: Inhibition of cells growth by colorimetric (SRB) assay, DU-145; conditions: for CC50: read-out: LC50 DU-145
Summary of the method: as §1

PANC-1 = experiment: Inhibition of cells growth by colorimetric (SRB) assay, PANC-1
Summary of the method: as §1

IGROV-ET = experiment: Inhibition of cells growth by colorimetric (SRB) assay, IGROV-ET
Summary of the method: as §1

In the case of `Nc1nccc(-c2c3c(N)ccnc3n3c(N)nccc23)n1` [Compound 90], the GI50 (LoVo-Dox; Homo sapiens, 48 h, read-out: GI50 LOVO-DOX, SRB assay, 48 hours exposure) is reported as 597 nM, the CC50 (LoVo-Dox; Homo sapiens, 48 h, read-out: LC50 LOVO-DOX, SRB assay, 48 hours exposure) is reported as 8070 nM and the “TGI LOVO-DOX” value (LoVo-Dox; SRB assay, 48 hours exposure) is reported as 1.27E−06. The “TGI MEL-28” value (SK-MEL-28) was 9.68E−07, the GI50 (SK-MEL-28) was 397 nM and the CC50 (SK-MEL-28) was 3450 nM. For the same molecule, the GI50 (HT-29; Homo sapiens, HT-29, 48 h, read-out: GI50 HT-29, SRB assay, 48 hours exposure) was 1270 nM, the CC50 (HT-29; Homo sapiens, HT-29, 48 h, read-out: LC50 HT-29, SRB assay, 48 hours exposure) was 15800 nM and the “TGI HT-29” value (HT-29; SRB assay, 48 hours exposure) was 1.44E−05. For the same molecule, the GI50 (A-549; Homo sapiens, A549, 48 h, read-out: GI50 A-549, SRB assay, 48 hours exposure) was 887 nM, the CC50 (A-549; Homo sapiens, A549, 48 h, read-out: LC50 A-549, SRB assay, 48 hours exposure) was 7050 nM and the “TGI A-549” value (A-549; SRB assay, 48 hours exposure) was 2.05E−06. For the same molecule, the GI50 (K-562; Homo sapiens, K562, 48 h, read-out: GI50 K-562, SRB assay, 48 hours exposure) was 1230 nM, the CC50 (K-562; Homo sapiens, K562, 48 h, read-out: LC50 K-562, SRB assay, 48 hours exposure) was 15800 nM and the “TGI K-562” value (K-562; SRB assay, 48 hours exposure) was 5.28E−06. The GI50 (SK-OV-3; Homo sapiens, SK-OV-3, 48 h, read-out: GI50 SKOV-3, SRB assay, 48 hours exposure) was 465 nM, the CC50 (SK-OV-3; Homo sapiens, SK-OV-3, 48 h, read-out: LC50 SKOV-3, SRB assay, 48 hours exposure) was 13900 nM and the “TGI SKOV-3” value (SK-OV-3; SRB assay, 48 hours exposure) was 1.15E−06. The GI50 (LoVo; Homo sapiens, LoVo, 48 h, read-out: GI50 LOVO, SRB assay, 48 hours exposure) was 276 nM, the “TGI LOVO” value (LoVo; SRB assay, 48 hours exposure) was 6.54E−07 and the CC50 (LoVo; SRB assay, 48 hours exposure) was 1560 nM. The GI50 (SK-BR-3; Homo sapiens, SK-BR-3, 48 h, read-out: GI50 SK-BR-3, SRB assay, 48 hours exposure) was 311 nM, the CC50 (SK-BR-3; Homo sapiens, SK-BR-3, 48 h, read-out: LC50 SK-BR-3, SRB assay, 48 hours exposure) was 1420 nM and the “TGI SK-BR-3” value (SK-BR-3; SRB assay, 48 hours exposure) was 6.64E−07. The GI50 (IGROV-1; Homo sapiens, IGROV-1, 48 h, read-out: GI50 IGROV, SRB assay, 48 hours exposure) was 339 nM, the “TGI IGROV” value (IGROV-1; SRB assay, 48 hours exposure) was 6.92E−07 and the CC50 (IGROV-1; SRB assay, 48 hours exposure) was 1410 nM. The GI50 (DU-145; Homo sapiens, DU-145, 48 h, read-out: GI50 DU-145, SRB assay, 48 hours exposure) was 355 nM, the “TGI DU-145” value (DU-145; SRB assay, 48 hours exposure) was 1.03E−06 and the CC50 (DU-145; SRB assay, 48 hours exposure) was 10700 nM. For the same molecule, the GI50 (PANC-1; Homo sapiens, PANC-1, 48 h, read-out: GI50 PANC-1, SRB assay, 48 hours exposure) was 1180 nM, the CC50 (PANC-1; Homo sapiens, PANC-1, 48 h, read-out: LC50 PANC-1, SRB assay, 48 hours exposure) was 15800 nM and the “TGI PANC-1” value (PANC-1; SRB assay, 48 hours exposure) was 4.98E−06. For the same molecule, the GI50 (IGROV-ET; Homo sapiens, 48 h, read-out: GI50 IGROV-ET, SRB assay, 48 hours exposure) was 1920 nM, the CC50 (IGROV-ET; Homo sapiens, 48 h, read-out: LC50 IGROV-ET, SRB assay, 48 hours exposure) was 15800 nM and the “TGI IGROV-ET” value (IGROV-ET; SRB assay, 48 hours exposure) was 6.95E−06.

`Cl.Nc1nccc(-c2c3c(N)ccnc3n3c(N)nccc23)n1` [Compound 91] was tested, and the “TGI LOVO-DOX” value (LoVo-Dox; SRB assay, 48 hours exposure) was 1.86E−06, the GI50 (LoVo-Dox; read-out: GI50 LOVO-DOX, SRB assay, 48 hours exposure) was 774 nM and the CC50 (LoVo-Dox; read-out: LC50 LOVO-DOX, SRB assay, 48 hours exposure) was 7470 nM. For the same molecule, the “TGI MEL-28” value (SK-MEL-28) was 5.10E−07, the GI50 (SK-MEL-28) was 180 nM and the CC50 (SK-MEL-28) was 1250 nM. For the same molecule, the “TGI HT-29” value (HT-29; SRB assay, 48 hours exposure) was 2.49E−06, the GI50 (HT-29; read-out: GI50 HT-29, SRB assay, 48 hours exposure) was 1340 nM and the CC50 (HT-29; read-out: LC50 HT-29, SRB assay, 48 hours exposure) was 24900 nM. For the same molecule, the “TGI A-549” value (A-549; SRB assay, 48 hours exposure) was 2.09E−06, the GI50 (A-549; read-out: GI50 A-549, SRB assay, 48 hours exposure) was 1090 nM and the CC50 (A-549; read-out: LC50 A-549, SRB assay, 48 hours exposure) was 8290 nM. For the same molecule, the “TGI K-562” value (K-562; SRB assay, 48 hours exposure) was 3.78E−06, the GI50 (K-562; read-out: GI50 K-562, SRB assay, 48 hours exposure) was 1320 nM and the CC50 (K-562; read-out: LC50 K-562, SRB assay, 48 hours exposure) was 24900 nM. For the same molecule, the “TGI SKOV-3” value (SK-OV-3; SRB assay, 48 hours exposure) was 2.12E−06, the GI50 (SK-OV-3; read-out: GI50 SKOV-3, SRB assay, 48 hours exposure) was 700 nM and the CC50 (SK-OV-3; read-out: LC50 SKOV-3, SRB assay, 48 hours exposure) was 24900 nM. The “TGI LOVO” value (LoVo; SRB assay, 48 hours exposure) was 8.49E−07, the GI50 (LoVo; read-out: GI50 LOVO, SRB assay, 48 hours exposure) was 201 nM and the CC50 (LoVo; SRB assay, 48 hours exposure) was 6820 nM. For the same molecule, the “TGI SK-BR-3” value (SK-BR-3; SRB assay, 48 hours exposure) was 6.45E−07, the GI50 (SK-BR-3; read-out: GI50 SK-BR-3, SRB assay, 48 hours exposure) was 251 nM and the CC50 (SK-BR-3; read-out: LC50 SK-BR-3, SRB assay, 48 hours exposure) was 1650 nM. The “TGI IGROV” value (IGROV-1; SRB assay, 48 hours exposure) was 9.73E−07, the GI50 (IGROV-1; read-out: GI50 IGROV, SRB assay, 48 hours exposure) was 241 nM and the CC50 (IGROV-1; SRB assay, 48 hours exposure) was 6020 nM. The “TGI DU-145” value (DU-145; SRB assay, 48 hours exposure) was 1.34E−06, the GI50 (DU-145; read-out: GI50 DU-145, SRB assay, 48 hours exposure) was 336 nM and the CC50 (DU-145; SRB assay, 48 hours exposure) was 24900 nM. For the same molecule, the “TGI PANC-1” value (PANC-1; SRB assay, 48 hours exposure) was 2.44E−06, the GI50 (PANC-1; read-out: GI50 PANC-1, SRB assay, 48 hours exposure) was 896 nM and the CC50 (PANC-1; read-out: LC50 PANC-1, SRB assay, 48 hours exposure) was 16200 nM. The “TGI IGROV-ET” value (IGROV-ET; SRB assay, 48 hours exposure) was 1.98E−06, the GI50 (IGROV-ET; read-out: GI50 IGROV-ET, SRB assay, 48 hours exposure) was 1160 nM and the CC50 (IGROV-ET; read-out: LC50 IGROV-ET, SRB assay, 48 hours exposure) was 24900 nM.
